For 2 compounds, log virus titer change results are on record in PubChem BioAssay AID602411 (Southern Research Specialized Biocontainment Screening …, 2012).

Structures are written as SMILES. Bounds are passed on as bounds.

The experiment concerns VEEV Trinidad donkey, virus titer reduction. Kind of experiment: log virus titer change, VEEV Trinidad donkey strain, secondary screen at 10 µM (AID 602411). The settings on record: hits give low values.

As for `CN1CCN(Cc2nc3ccc([N+](=O)[O-])cc3c(=O)n2-c2ccccc2F)CC1`, the log virus titer change is under -5.2.

For the compound `CCN1CCN(Cc2nc3ccc([N+](=O)[O-])cc3c(=O)n2-c2ccccc2F)CC1`, the log virus titer change is under -5.5.
